Measurements taken from PMC11915811, “Conformational activation and disulfide exchange in HIV-1 Env induce cell-free lytic/fusogenic transformation and enhance infection” (Journal of Virology, 2025).
“Also recorded” adds a separate entry of the source. Read-outs that look alike come from different tables or passages of the source.

Columns and labels:
gp120 = conditions: read-out: Kd, gp120 binding affinity, cited from earlier work
JRFL pseudovirus [1] = experiment: Cell-free lysis of JRFL pseudovirus, p24 release detected by ELISA; conditions: 2 h at 37°C; for Lysis of JRFL pseudovirus in conjunction with Trx1 (in words): 1,000 nM compound + serial dilutions of Trx1; for p24 leakage from JRFL pseudovirus with thiol compound in place of Trx1: 1,000 nM KR13b + 1,000 nM free cysteine or glutathione, mean of three independent experiments
JRFL pseudovirus [2] = format: cell-based, HIV-1; conditions: 1,000 nM Trx1; HOS CD4+ CCR5+ cells; normalized to pseudovirus + PBS
BaL.01 pseudovirus = format: cell-based, HIV-1; conditions: 1,000 nM Trx1; HOS CD4+ CCR5+ cells; normalized to pseudovirus + PBS
HXB2 pseudovirus = format: cell-based, HIV-1; conditions: 1,000 nM Trx1; HOS CD4+ CCR5+ cells; normalized to pseudovirus + PBS
VSV pseudovirus = format: cell-based, vesicular stomatitis virus

## CNCc1ccc2c(c1)C[C@H](CN=C(N)N)[C@H]2NC(=O)C(=O)Nc1ccc(Cl)c(F)c1.O=C(O)C(F)(F)F.O=C(O)C(F)(F)F [BNM-III-170]
gp120; ITC
  Kd: 47 nM
JRFL pseudovirus [1]
  Lysis of JRFL pseudovirus in conjunction with Trx1 (in words): did cause lysis

## N[C@@H](CCC(=O)N[C@@H](CS)C(=O)NCC(=O)O)C(=O)O [glutathione]
JRFL pseudovirus [1]
  p24 leakage from JRFL pseudovirus with thiol compound in place of Trx1: Neither thiol compound caused leakage of p24 above background

## COc1ccnc2[nH]cc(C(=O)C(=O)N3CCN(C(=O)c4ccccc4)C[C@H]3C)c12 [BMS-806]
gp120; SPA (scintillation proximity assay)
  Kd: 21.1 ± 1.9 nM
JRFL pseudovirus [1]
  Lysis of JRFL pseudovirus in conjunction with Trx1 (in words): did not

## N[C@@H](CS)C(=O)O [cysteine]
JRFL pseudovirus [1]
  p24 leakage from JRFL pseudovirus with thiol compound in place of Trx1: Neither thiol compound caused leakage of p24 above background

B1: Trx1: recombinant human thioredoxin-1, purchased from Cayman Chemical (protein)
chain: MVKQIESKTAFQEALDAAGDKLVVVDFSATWCGPCKMIKPFFHSLSEKYSNVIFLEVDVDDCQDVASECEVKCMPTFQFFKKGQKVGEFSGANKEKLEATINELV
JRFL pseudovirus [2]
  Enhancement of pseudovirus infectivity (RLU) by exogenous Trx1: at least doubling its RLU values
BaL.01 pseudovirus
  Enhancement of pseudovirus infectivity (RLU) by exogenous Trx1: at least doubling its RLU values
HXB2 pseudovirus
  Enhancement of pseudovirus infectivity (RLU) by exogenous Trx1: at least doubling its RLU values
VSV pseudovirus
  Enhancement of VSV infection by Trx1: 10–40%
JRFL pseudovirus [1]; serial dilutions of the single component, no partner
  p24 release / lysis of JRFL pseudovirus by the component alone (control): no significant p24 release; also recorded: negligible lysis
JRFL pseudovirus [1]; virus preincubated with 1,000 nM of labelled component for 0–30 min, then 1,000 nM of the other (KR13b or Trx1) added, versus no preincubation
  Effect of preincubating virus with one component on lysis (order of addition): significant decrease in lytic effect at 10 min
